Laboratory results published in patent US8097616B2, “Process for preparation of high-purity meloxicam and meloxicam potassium salt” (Egis Gyogyszergyar Nyilvanosan Mukodo Reszvenytarsasag, priority 2004, dated 2012).

Assay: solubility in water at the acidification pH
Format: physicochemical
Conditions: acidified until pH 6

Cc1cnc(NC(=O)C2=C(O)c3ccccc3S(=O)(=O)N2C)s1 [meloxicam, 4-hydroxy-2-methyl-N-(5-methyl-2-thiazolyl)-2H-1,2-benzothiazine-3-carboxamide-1,1-dioxide]
solubility in water: almost insoluble
